Laboratory results as given in patent US9440957B2, “Compounds and compositions for modulating EGFR Activity” (Novartis AG, priority 2012, dated 2016).
pIC50: −log10 of the molar value. Read-outs that look alike come from different tables or passages of the source.

What was measured:
EGFR(L858R/T790M) = biological target: T1, EGFR(L858R/T790M) (Homo sapiens, UniProt P00533, L858R/T790M); assay: EGFR biochemical assay (HTRF), IC50 determinations
T1 construct: purchased from Carna (GST-a.a. 669-1210)
In short: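 HTRF kinase reaction with biotin-TK peptide at room temperature, quenched with EDTA at 60 min and detected with PT66K/SAXL after 1 h. Without preincubation, enzyme starts the reaction with compound, ATP and peptide present. With preincubation, compound, enzyme and peptide sit at room temperature for a set time before ATP is added.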

H1975 (EGFR L858/T790M) = H1975 (EGFR L858/T790M) (Homo sapiens, UniProt P00533, L858R/T790M); assay: EGFR target modulation in H1975 cell line (phospho-EGFR Y1173 ELISA); assay type: cell-based
In short: (§1)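 pY1173 was measured by sandwich ELISA with anti-EGFR capture and chemiluminescent read-out. Before lysis, each cell line (HCC827, H1975, H3255) was treated with compound for 3 hours. IC50 derived by non-linear fit, normalised to EGF-stimulated controls as maximum.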

HCC827 (Del E746-A750) = HCC827 (Del E746-A750) (Homo sapiens, UniProt P00533, DEL746-750); assay: EGFR target modulation in HCC827 cell line (phospho-EGFR Y1173 ELISA); assay type: cell-based
Protocol: EGFR Target Modulation in H1975, H3255 and HCC827 Cell Lines Tissue Culture. Cells were maintained in 10% FBS/RPMI supplemented with 100 μg/ml Penicillin/Streptomycin (Hyclone #SH30236.01). […] The cells were allowed to incubate overnight in a 37° C., 5% CO2 humidified tissue culture incubator. […] The serial diluted compounds were transferred to the plate containing cells by using a 50 nl Pin Head device (Perkin Elmer) and the cells were placed back in the incubator for 3 hours. Phospho-EGFR ([…]) Target Modulation Assay. The media was reduced to 20 ul using a Bio-Tek ELx 405 SelectTM plate washer. […] The plates were shaken at 4° C. for 20 minutes. An aliquot of 25 ul from each well was transferred to pEGFR(Y1173) ELISA plates for analysis. Phospho-EGFR ([…]) ELISA. Solid white high-binding ELISA plates (Greiner #781074) were coated with 5 ug/ml anti-EGFR capture antibody (R&D Systems #AF231) overnight in 50 mM carbonate/bicarbonate pH 9.5 buffer. Plates were blocked with 1% BSA (Sigma #A7030) in PBS for 1 hour at room temperature. Wash steps were carried out with a Bio-Tek ELx405 SelectTM using 4 cycles of 100 ul TBS-T (20 mM Tris, 137 mM NaCl, 0.05% Tween-20) per well. […] Lysis was allowed to occur for 20 minutes on ice. A 25 ul aliquot was added to each well of the blocked ELISA plate and incubated overnight at 4° C. with gentle shaking. […] After washing, 1:2,000 anti-rabbit-HRP (Cell Signaling #7074) in 0.2% BSA/TBS-T was added and incubated for 1 hour at room temperature. Chemiluminescent detection was carried out with SuperSignal ELISA Pico substrate (ThermoScientific #37069). Signal was read on EnVision plate reader using built-in UltraLUM setting. Data Analysis. Control cells treated with EGF were set to 100% maximum response. […] With these parameters, the IC50's for each compound in each cell line was calculated using non-linear curve fitting analysis.

[1] = biological target: human EGFR L858R/T790M (NIH/3T3 cells) (Homo sapiens, UniProt P00533, L858R/T790M); assay: EGFR target modulation in engineered NIH/3T3 cell lines (phospho-EGFR Y1068 AlphaLISA), EGFR L858R/T790M; assay type: cell-based; details: engineered NIH/3T3 cells, read-out: NIH3T3 IC50 (μM) EGFR (L858R/T790M)
In short: (§2)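 Engineered NIH/3T3 cells were plated overnight, then exposed to a 12-point 1:3 compound series (from a 10 μM stock) for 3 hours at 37 °C. WT-expressing cells alone were stimulated with 50 ng/ml EGF for 5 minutes before lysis. IC50s came from non-linear fits of AlphaLISA signal.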

[2] = biological target: human EGFR WT (NIH/3T3 cells, EGF-induced) (Homo sapiens, UniProt P00533); assay: EGFR target modulation in engineered NIH/3T3 cell lines (phospho-EGFR Y1068 AlphaLISA), EGFR WT; assay type: cell-based; details: engineered NIH/3T3 cells, read-out: NIH3T3 IC50 (μM) EGFR (WT)
In short: as §2

[3] = biological target: human EGFR L858R (NIH/3T3 cells) (Homo sapiens, UniProt P00533, L858R); assay: EGFR target modulation in engineered NIH/3T3 cell lines (phospho-EGFR Y1068 AlphaLISA), EGFR L858R; assay type: cell-based; details: engineered NIH/3T3 cells, read-out: NIH3T3 IC50 (μM) EGFR (L858R)
In short: as §2

HEKn (EGFR WT) = HEKn (EGFR WT) (Homo sapiens, UniProt P00533); assay: EGFR target modulation in HEKn (EGFR-WT) cell line (phospho-EGFR Y1173 ELISA); assay type: cell-based; details: value outside parentheses
In short: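 Primary neonatal human keratinocytes (EGFR WT) were exposed to serially diluted compounds for 3 h, then lysed on ice. Phospho-EGFR Y1173 was measured by chemiluminescent sandwich ELISA using anti-EGFR capture.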

H3255 (EGFR L858R) = H3255 (EGFR L858R) (Homo sapiens, UniProt P00533, L858R); assay: EGFR target modulation in H3255 cell line (phospho-EGFR Y1173 ELISA); assay type: cell-based
In short: as §1

[4] = EGFR (L858R/T790M) with 90 min pre-incubation, read-out: IC50 (μM) Column B
[5] = EGFR (L858R/T790M) with no pre-incubation, read-out: IC50 (μM) Column A

Chain of HCC827 (Del E746-A750) (P00533 with tags, fused parts or gaps DEL746-750): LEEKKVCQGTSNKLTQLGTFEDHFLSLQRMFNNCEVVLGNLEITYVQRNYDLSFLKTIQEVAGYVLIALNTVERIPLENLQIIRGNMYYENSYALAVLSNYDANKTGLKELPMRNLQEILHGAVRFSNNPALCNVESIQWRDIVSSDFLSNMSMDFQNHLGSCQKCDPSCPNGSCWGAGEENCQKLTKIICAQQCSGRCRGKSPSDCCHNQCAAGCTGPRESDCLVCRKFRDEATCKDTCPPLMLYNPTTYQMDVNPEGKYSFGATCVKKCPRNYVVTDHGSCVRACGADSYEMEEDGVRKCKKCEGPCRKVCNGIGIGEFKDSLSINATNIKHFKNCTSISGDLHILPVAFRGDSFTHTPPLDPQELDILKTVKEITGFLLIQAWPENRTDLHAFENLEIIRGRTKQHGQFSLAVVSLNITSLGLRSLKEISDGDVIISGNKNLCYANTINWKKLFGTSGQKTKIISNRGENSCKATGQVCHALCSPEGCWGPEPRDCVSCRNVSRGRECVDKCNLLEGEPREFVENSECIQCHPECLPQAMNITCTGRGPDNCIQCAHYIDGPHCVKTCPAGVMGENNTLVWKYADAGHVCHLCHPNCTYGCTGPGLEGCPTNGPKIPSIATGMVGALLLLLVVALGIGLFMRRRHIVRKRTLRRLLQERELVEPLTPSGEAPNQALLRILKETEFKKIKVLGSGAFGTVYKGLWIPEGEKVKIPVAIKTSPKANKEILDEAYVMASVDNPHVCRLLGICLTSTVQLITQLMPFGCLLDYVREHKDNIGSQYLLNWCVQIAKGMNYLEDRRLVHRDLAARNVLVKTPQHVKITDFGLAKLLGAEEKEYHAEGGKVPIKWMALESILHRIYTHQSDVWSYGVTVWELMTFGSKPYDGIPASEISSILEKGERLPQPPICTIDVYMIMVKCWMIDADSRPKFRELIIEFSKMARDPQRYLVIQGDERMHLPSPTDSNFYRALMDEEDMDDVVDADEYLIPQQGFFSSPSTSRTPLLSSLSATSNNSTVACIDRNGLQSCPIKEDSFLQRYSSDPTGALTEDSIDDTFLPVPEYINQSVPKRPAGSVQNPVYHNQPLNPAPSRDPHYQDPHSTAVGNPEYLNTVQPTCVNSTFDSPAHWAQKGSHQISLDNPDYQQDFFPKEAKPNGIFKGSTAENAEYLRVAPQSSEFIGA
Chain of H1975 (EGFR L858/T790M) (P00533 25-1210 T790M/L858R): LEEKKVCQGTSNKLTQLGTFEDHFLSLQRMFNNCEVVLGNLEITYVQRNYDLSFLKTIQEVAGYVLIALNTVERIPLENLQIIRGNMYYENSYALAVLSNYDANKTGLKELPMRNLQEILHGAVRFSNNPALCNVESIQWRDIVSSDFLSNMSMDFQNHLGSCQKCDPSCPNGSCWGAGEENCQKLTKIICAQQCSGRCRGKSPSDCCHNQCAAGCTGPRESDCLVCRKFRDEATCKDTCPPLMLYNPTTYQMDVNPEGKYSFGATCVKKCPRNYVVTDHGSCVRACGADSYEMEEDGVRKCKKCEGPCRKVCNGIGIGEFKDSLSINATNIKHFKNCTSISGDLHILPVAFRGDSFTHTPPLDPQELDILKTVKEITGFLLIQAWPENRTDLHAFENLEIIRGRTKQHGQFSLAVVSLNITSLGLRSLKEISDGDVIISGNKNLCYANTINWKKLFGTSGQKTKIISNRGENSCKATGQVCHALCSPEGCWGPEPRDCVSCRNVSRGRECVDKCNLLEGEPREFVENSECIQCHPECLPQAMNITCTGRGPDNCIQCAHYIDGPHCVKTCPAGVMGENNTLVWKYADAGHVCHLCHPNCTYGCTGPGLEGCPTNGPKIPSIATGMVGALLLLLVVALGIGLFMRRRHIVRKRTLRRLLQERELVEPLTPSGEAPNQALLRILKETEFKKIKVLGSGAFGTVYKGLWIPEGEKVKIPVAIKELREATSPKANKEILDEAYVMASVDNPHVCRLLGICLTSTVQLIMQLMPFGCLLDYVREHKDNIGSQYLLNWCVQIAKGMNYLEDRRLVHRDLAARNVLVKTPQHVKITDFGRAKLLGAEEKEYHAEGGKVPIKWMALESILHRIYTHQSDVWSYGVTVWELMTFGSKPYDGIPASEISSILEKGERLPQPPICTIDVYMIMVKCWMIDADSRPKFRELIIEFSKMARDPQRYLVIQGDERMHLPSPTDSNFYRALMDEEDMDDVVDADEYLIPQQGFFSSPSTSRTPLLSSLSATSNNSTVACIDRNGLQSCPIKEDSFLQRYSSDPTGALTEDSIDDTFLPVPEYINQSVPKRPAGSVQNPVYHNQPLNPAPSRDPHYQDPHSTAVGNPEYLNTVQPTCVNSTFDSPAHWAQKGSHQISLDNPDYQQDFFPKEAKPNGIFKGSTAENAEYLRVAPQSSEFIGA
Chain of human EGFR L858R/T790M (NIH/3T3 cells) (P00533 25-1210 T790M/L858R): as above
Chain of human EGFR WT (NIH/3T3 cells, EGF-induced) (P00533 25-1210): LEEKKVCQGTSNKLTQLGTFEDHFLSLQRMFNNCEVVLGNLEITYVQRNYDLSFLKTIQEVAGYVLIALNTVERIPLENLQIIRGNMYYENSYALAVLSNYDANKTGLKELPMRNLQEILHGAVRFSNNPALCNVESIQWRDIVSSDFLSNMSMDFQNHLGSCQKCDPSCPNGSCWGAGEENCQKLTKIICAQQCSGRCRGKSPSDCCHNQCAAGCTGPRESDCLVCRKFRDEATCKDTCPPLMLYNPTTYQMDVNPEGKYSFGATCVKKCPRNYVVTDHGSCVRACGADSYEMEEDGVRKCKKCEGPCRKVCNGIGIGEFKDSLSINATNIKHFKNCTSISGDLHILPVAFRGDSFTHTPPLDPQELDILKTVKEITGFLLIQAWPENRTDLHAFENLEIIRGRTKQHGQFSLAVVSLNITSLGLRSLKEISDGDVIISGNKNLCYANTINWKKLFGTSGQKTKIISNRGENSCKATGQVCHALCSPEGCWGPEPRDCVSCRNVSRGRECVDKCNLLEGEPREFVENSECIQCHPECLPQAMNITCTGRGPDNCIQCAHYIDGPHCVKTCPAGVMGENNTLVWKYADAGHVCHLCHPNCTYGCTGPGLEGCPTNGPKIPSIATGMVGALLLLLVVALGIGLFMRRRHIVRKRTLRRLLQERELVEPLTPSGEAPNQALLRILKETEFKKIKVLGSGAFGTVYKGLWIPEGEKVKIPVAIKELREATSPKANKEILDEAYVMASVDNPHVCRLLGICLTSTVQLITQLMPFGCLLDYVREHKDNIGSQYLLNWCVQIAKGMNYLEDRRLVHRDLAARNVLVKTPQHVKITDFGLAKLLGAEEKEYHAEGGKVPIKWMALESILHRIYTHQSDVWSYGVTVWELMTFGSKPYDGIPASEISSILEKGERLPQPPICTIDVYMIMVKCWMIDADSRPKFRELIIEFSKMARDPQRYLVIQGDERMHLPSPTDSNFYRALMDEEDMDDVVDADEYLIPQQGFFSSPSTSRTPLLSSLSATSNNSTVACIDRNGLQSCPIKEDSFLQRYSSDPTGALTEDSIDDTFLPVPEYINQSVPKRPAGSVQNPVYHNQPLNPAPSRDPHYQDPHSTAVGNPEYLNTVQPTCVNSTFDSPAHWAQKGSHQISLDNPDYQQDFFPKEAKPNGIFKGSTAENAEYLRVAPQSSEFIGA

IC50 (EGFR(L858R/T790M); [4])	IC50 (EGFR(L858R/T790M); [5])	pIC50 (H1975 (EGFR L858/T790M))	pIC50 (HCC827 (Del E746-A750))	IC50 [1]	IC50 [2]	IC50 [3]	pIC50 (HEKn (EGFR WT))	pIC50 (H3255 (EGFR L858R))	SMILES
< 0.001 µM	0.007 µM	8.10	8.70	0.004 µM	0.152 µM	0.004 µM	6.35	7.92	Cc1cc(C(=O)Nc2nc3cccc(Cl)c3n2[C@@H]2CCCCN(C(=O)/C=C/CN3CCCC3)C2)ccn1 [Example 1, (R,E)-N-(7-chloro-1-(1-(4-(pyrrolidin-1-yl)but-2-enoyl)azepan-3-yl)-1H-benzo[d]imidazol-2-yl)-2-methylisonicotinamide]
< 0.001 µM	0.01 µM	8.00	> 9.00	0.011 µM	0.183 µM	0.008 µM	6.04	7.82	Cc1cc(C(=O)Nc2nc3cccc(Cl)c3n2[C@@H]2CCCCN(C(=O)/C=C/CN3CC(F)C3)C2)ccn1 [Example 2, (R,E)-N-(7-chloro-1-(1-(4-(3-fluoroazetidin-1-yl)but-2-enoyl)azepan-3-yl)-1H-benzo[d]imidazol-2-yl)-2-methylisonicotinamide]
0.011 µM	0.156 µM	6.60	6.97	0.174 µM	> 7.6 µM	0.157 µM	5.19	6.49	Cc1cc(C(=O)Nc2nc3cccc(Cl)c3n2[C@@H]2CCCCN(C(=O)/C=C/CN3CCC(F)(F)C3)C2)ccn1 [Example 3-3]
< 0.001 µM	0.005 µM	8.22	> 9.00	0.005 µM	0.058 µM	0.003 µM	6.49	8.15	CO[C@@H]1CCN(C/C=C/C(=O)N2CCCC[C@@H](n3c(NC(=O)c4ccnc(C)c4)nc4cccc(Cl)c43)C2)C1 [Example 3-4]
< 0.001 µM	0.007 µM	8.10	> 9.00	0.006 µM	0.259 µM	0.006 µM	6.24	7.92	CO[C@H]1CCN(C/C=C/C(=O)N2CCCC[C@@H](n3c(NC(=O)c4ccnc(C)c4)nc4cccc(Cl)c43)C2)C1 [Example 3-5]
< 0.001 µM	0.01 µM	7.60	7.74	0.032 µM	0.114 µM	0.018 µM	5.90	7.66	Cc1cc(C(=O)Nc2nc3cccc(Cl)c3n2[C@@H]2CCCCN(C(=O)/C=C/CN3CC[C@@H](O)C3)C2)ccn1 [Example 3-6]
0.005 µM	0.084 µM	7.07	7.40	0.148 µM	7.3 µM	0.111 µM	5.35	7.05	Cc1cc(C(=O)Nc2nc3cccc(Cl)c3n2[C@@H]2CCCCN(C(=O)/C=C/CN3CC(F)(F)C3)C2)ccn1 [Example 3-15]
< 0.001 µM	0.01 µM	7.80	8.15	0.002 µM	0.34 µM	0.004 µM	5.82	7.47	Cc1cc(C(=O)Nc2nc3cccc(Cl)c3n2[C@@H]2CCCCN(C(=O)/C=C/CN(C)C)C2)cc(C)n1 [Example 6, (R,E)-N-(7-chloro-1-(1-(4-(dimethylamino)but-2-enoyl)azepan-3-yl)-1H-benzo[d]imidazol-2-yl)-2,6-dimethylisonicotinamide]
< 0.001 µM	0.012 µM	8.30	7.85	0.011 µM	> 10 µM	0.081 µM	6.14	7.48	C=CC(=O)N1CCCCC(n2c(NC(=O)c3cccc(C(F)(F)F)c3)nc3cc(C)ccc32)C1 (stereo not shown) [Example 17-1]
0.003 µM	0.064 µM	8.00	7.52	0.008 µM	4.4 µM	0.052 µM	< 5.00	6.83	C=CC(=O)N1CCCC[C@@H](n2c(NC(=O)c3cccc(C(F)(F)F)c3)nc3cccc(C(F)(F)F)c32)C1 [Example 17-12]
–	–	7.57	6.68	0.012 µM	> 10 µM	0.149 µM	< 5.00	6.61	C=CC(=O)N1CCC[C@@H](n2c(NC(=O)c3cccc(C(F)(F)F)c3)nc3cc(C)ccc32)C1 [Example 17-105]
< 0.001 µM	0.001 µM	> 9.00	> 9.00	–	–	–	6.89	8.70	C=CC(=O)N1CCCC[C@@H](n2c(NC(=O)c3cc(C)nc(C)c3)nc3cc(CN4CC[C@H](OC)C4)cc(C)c32)C1 [Example 17-156]
< 0.001 µM	0.003 µM	8.70	8.70	–	–	–	6.51	8.15	C=CC(=O)N1CCCC[C@@H](n2c(NC(=O)c3cc(C)nc(C)c3)nc3cc(CN4CC[C@@H](OC)C4)cc(C)c32)C1 [Example 17-157]
0.004 µM	0.054 µM	7.42	7.64	–	–	–	5.34	6.84	C/C=C/C(=O)N1CCCC[C@@H](n2c(NC(=O)c3cc(C)nc(C)c3)nc3cc(CN4CC[C@H](OC)C4)cc(C)c32)C1 [Example 17-162]
0.005 µM	0.07 µM	7.37	7.96	–	–	–	5.90	7.29	C/C=C/C(=O)N1CCCC[C@@H](n2c(NC(=O)c3ccnc(C)c3)nc3cc(CN4CC[C@@H](OC)C4)cc(C)c32)C1 [Example 17-163]
0.005 µM	0.055 µM	7.24	8.05	–	–	–	5.64	7.14	C/C=C/C(=O)N1CCCC[C@@H](n2c(NC(=O)c3ccnc(C)c3)nc3cc(CN4CCCC4)cc(C)c32)C1 [Example 17-164]
0.004 µM	0.054 µM	7.41	7.51	–	–	–	5.35	7.30	C/C=C/C(=O)N1CCCC[C@@H](n2c(NC(=O)c3cc(C)nc(C)c3)nc3cc(CN4CC[C@H](F)C4)cc(C)c32)C1 [Example 17-165]
< 0.001 µM	0.018 µM	7.85	8.40	–	–	–	6.06	7.70	COc1cccc2nc(NC(=O)c3ccnc(C)c3)n([C@@H]3CCCCN(C(=O)/C=C/CN(C)C)C3)c12 [Example 17-176]
0.006 µM	0.097 µM	6.93	7.42	–	–	–	5.38	6.97	COc1cc2nc(NC(=O)c3ccnc(C)c3)n([C@@H]3CCCCN(C(=O)/C=C/CN(C)C)C3)c2cc1Cl [Example 17-178]
